Assay results as given in ChEMBL document CHEMBL5257061, “Structural Study of Potent Triazole-Based Inhibitors of Staphylococcus aureus Biotin Protein Ligase” (ACS Med Chem Lett, 2023).
In brackets after ≈: the same amount, converted by molar mass.

How the values were obtained:
[1] = Inhibition of recombinant Staphylococcus aureus C-terminal hexahistidine tagged Biotin protein ligase expressed in Escherichia coli BL21 (DE3) assessed as inhibition constant incubated for 30 mins by [3H]-Biotin incorporation based radioactivity based assay
[2] = Inhibition of recombinant Staphylococcus aureus C-terminal hexahistidine tagged Biotin protein ligase expressed in Escherichia coli BL21 (DE3) assessed as inhibition constant incubated for 10 mins in presence of ATP by [3H]-Biotin incorporation based liquid scintillation counting analysis
Staphylococcus aureus [3] = test: Antibacterial activity against Staphylococcus aureus ATCC 49775 assessed as inhibition of bacterial growth; format: functional
[4] = Inhibition of Staphylococcus aureus Biotin protein ligase assessed as inhibition constant
[5] = Inhibition of Staphylococcus aureus Biotin protein ligase assessed as inhibition constant by biotinylation assay
Staphylococcus aureus [6] = test: Antibacterial activity against Staphylococcus aureus ATCC 49775 assessed as inhibition of bacterial growth incubated for 16 to 20 hrs by CLSI protocol based two-fold serial dilution method; format: functional; settings: time 16-20 hrs

## Nc1ncnc2c1ncn2[C@@H]1O[C@H](COP(=O)(O)OCCCCC[C@@H]2SC[C@@H]3NC(=O)N[C@@H]32)[C@@H](O)[C@H]1O
[1]
  Ki: 30 nM

## Cc1ccc2oc(=O)n(CCCCn3cc(CCCCC[C@@H]4SC[C@@H]5NC(=O)N[C@@H]54)nn3)c2c1
[2]
  Ki: 230 nM

## O=C1N[C@H]2[C@H](CS[C@H]2CCCCCc2cn(Cc3cccc(F)c3)nn2)N1
[2]
  Ki: 670 nM

## O=C1N[C@H]2[C@H](CS[C@H]2CCCCCc2cn(Cc3ccc(C(=O)O)cc3)nn2)N1
[2]
  Ki: 280 nM

## Nc1cc(CNC(=O)c2ccc(C(c3cccc(F)c3)n3cc(CCCCC[C@@H]4SC[C@@H]5NC(=O)N[C@@H]54)nn3)cc2)ccn1 (some centres not stated)
Staphylococcus aureus [3]
  MIC: 8 µg/mL (≈ 13 µM)
[4]
  Ki: 8.43 nM

## NCCCNC(=O)c1ccc(C(c2cccc(F)c2)n2nnc(CCCCC[C@@H]3SC[C@@H]4NC(=O)N[C@@H]43)c2F)cc1 (some centres not stated)
[5]
  Ki: 268 nM
Staphylococcus aureus [6]
  MIC: > 64 µg/mL

## NC(=O)CCCCNC(=O)c1ccc(C(c2cccc(F)c2)n2cc(CCCCC[C@@H]3SC[C@@H]4NC(=O)N[C@@H]43)nn2)cc1 (some centres not stated)
[5]
  Ki: 246 nM
Staphylococcus aureus [6]
  MIC: > 64 µg/mL

## O=C1N[C@H]2[C@H](CS[C@H]2CCCCCc2cn(C(c3ccc(C(=O)NCc4ccncc4)cc3)c3cccc(F)c3)nn2)N1 (some centres not stated)
[5]
  Ki: 130 nM
Staphylococcus aureus [6]
  MIC: > 64 µg/mL

## O=C1N[C@H]2[C@H](CS[C@H]2CCCCCc2cn(C(c3ccc(C(=O)NCc4ccccn4)cc3)c3cccc(F)c3)nn2)N1 (some centres not stated)
[5]
  Ki: 544 nM
Staphylococcus aureus [6]
  MIC: > 64 µg/mL

## Cc1ccc2oc(=O)n(CCCCn3nnc(CCCCC[C@@H]4SC[C@@H]5NC(=O)N[C@@H]54)c3F)c2c1
[2]
  Ki: 420 nM

## Nc1ncnc2c1ncn2[C@@H]1O[C@H](Cn2cc(CCCCC[C@@H]3SC[C@@H]4NC(=O)N[C@@H]43)nn2)[C@@H](O)[C@H]1O
[1]
  Ki: 1170 nM

## NC(=O)CCCNC(=O)c1ccc(C(c2cccc(F)c2)n2cc(CCCCC[C@@H]3SC[C@@H]4NC(=O)N[C@@H]43)nn2)cc1 (some centres not stated)
[5]
  Ki: 10 nM
Staphylococcus aureus [6]
  MIC: 4 µg/mL (≈ 6.74 µM)

## NCCCNC(=O)c1ccc(C(c2cccc(F)c2)n2cc(CCCCC[C@@H]3SC[C@@H]4NC(=O)N[C@@H]43)nn2)cc1 (some centres not stated)
[5]
  Ki: 30 nM
Staphylococcus aureus [6]
  MIC: 8 µg/mL (≈ 14.1 µM)

## Nc1cc(CNC(=O)c2ccc(C(c3cccc(F)c3)n3nnc(CCCCC[C@@H]4SC[C@@H]5NC(=O)N[C@@H]54)c3F)cc2)ccn1 (some centres not stated)
[5]
  Ki: 131 nM
Staphylococcus aureus [6]
  MIC: > 64 µg/mL

## O=C1N[C@H]2[C@H](CS[C@H]2CCCCCc2cn(C(c3ccc(C(=O)NCCc4c[nH]cn4)cc3)c3cccc(F)c3)nn2)N1 (some centres not stated)
Staphylococcus aureus [3]
  MIC: 1 µg/mL (≈ 1.66 µM)
[4]
  Ki: 6.01 nM

## O=C1N[C@H]2[C@H](CS[C@H]2CCCCCc2cn(C(c3ccc(C(=O)NCCCc4c[nH]cn4)cc3)c3cccc(F)c3)nn2)N1 (some centres not stated)
[5]
  Ki: 181 nM
Staphylococcus aureus [6]
  MIC: 32 µg/mL (≈ 51.9 µM)

## Nc1ccc(CNC(=O)c2ccc(C(c3cccc(F)c3)n3cc(CCCCC[C@@H]4SC[C@@H]5NC(=O)N[C@@H]54)nn3)cc2)cc1 (some centres not stated)
[5]
  Ki: 63 nM
Staphylococcus aureus [6]
  MIC: > 64 µg/mL

## O=C1N[C@H]2[C@H](CS[C@H]2CCCCCc2cn(C(c3ccc(C(=O)NCc4cccnc4)cc3)c3cccc(F)c3)nn2)N1 (some centres not stated)
[5]
  Ki: 237 nM
Staphylococcus aureus [6]
  MIC: > 64 µg/mL

## O=C1N[C@H]2[C@H](CS[C@H]2CCCCCc2cn(C(c3ccc(C(=O)NCc4ccccc4)cc3)c3cccc(F)c3)nn2)N1 (some centres not stated)
[5]
  Ki: 867 nM
Staphylococcus aureus [6]
  MIC: > 64 µg/mL
